Measurements reported in patent US20240285571A1, “METHODS OF TREATING BONE INFECTIONS” (MICROBION CORPORATION, priority 2020, published 2024).
≈ marks a conversion by molar mass, not a printed value. Blank lines part the entries; values can stand above or below the compound they belong to.

How the values were obtained:
[1] = system: vancomycin-intermediate Staphylococcus aureus; assay: Broth microdilution MIC (Example 6); assay type: cell-based
Protocol: (§1) Test Compounds: The test agents BisEDT (MB-1-B3; Lot No. ED268-1-11-01), MB-2B, and MB-6 were stored at room temperature, in the dark, until assayed. The solvent and diluent for the test agents was DMSO (Sigma; St. Louis, MO; Lot No. SHBB9319V) and the prepared stock concentration was 6,464 μg/mL (101× the final test concentration).
(§2) Test compounds were evaluated at a concentration range of 0.06-64 μg/mL. For Gram-negative test isolates, amikacin and ceftazidime (alone and with clavulanate at a fixed concentration of 4 μg/mL) were evaluated over a concentration range of 0.06-64 μg/mL; meropenem and levofloxacin were evaluated over a concentration range of 0.008-8 μg/mL. For the testing of S. aureus, clindamycin, daptomycin, levofloxacin and vancomycin were evaluated at a concentration range of 0.008-8 μg/mL; linezolid was tested from 0.03-32 μg/mL.
(§3) Media: Cation-adjusted Mueller Hinton broth (CAMHB; BD; Lot No. 8190586) was used as the medium for testing (2, 3). For testing daptomycin, calcium was supplemented with […] Ca^2+, resulting in a final concentration of […] Ca^2+ (2, 3).
(§4) MIC Assay Procedure: MIC values were determined using a broth microdilution procedure described by CLSI (2, 3). Automated liquid handlers (Multidrop 384, Labsystems, Helsinki, Finland; Biomek 2000 and Biomek F X, Beckman Coulter, Fullerton CA) were used to conduct serial dilutions and liquid transfers.
(§5) To prepare the drug mother plates, which would provide the serial drug dilutions for the replicate daughter plates, the wells of columns 2 through 12 of standard 96-well microdilution plates (Costar 3795) were filled with 150 μl of the appropriate diluent for each row of drug. The test articles and comparator compounds (300 μl at 101× the highest concentration to be tested) were dispensed into the appropriate wells in column 1. The Biomek 2000 was then used to make 2-fold serial dilutions in the mother plates from column 1 through column 11. The wells of column 12 contained no drug and served as the organism growth control wells for the assay.
(§6) The daughter plates were loaded with 190 μL per well of RPMI using the Multidrop 384. The test panels were prepared on the Biomek FX instrument which transferred 2 μL of drug solution from each well of a mother plate to the corresponding well of each daughter plate in a single step.
(§7) A standardized inoculum of each test organism was prepared per CLSI methods to equal a 0.5 McFarland standard, followed by a dilution of 1:20. The plates were then inoculated with 10 μL of the diluted inoculum using the Biomek 2000 from low to high drug concentration resulting in a final concentration of approximately 5×10^5 CFU/mL.
(§8) Plates were stacked 3-4 high, covered with a lid on the top plate, placed into plastic bags, and incubated at 35° C. for 16 to 20 hr (vancomycin was read for S. aureus after 24 hr incubation time). The MIC was recorded as the lowest concentration of drug that inhibited visible growth of the organism.

[2] = system: relevant ATCC QC organisms; assay: Broth microdilution MIC, QC (Example 6); assay type: cell-based
Protocol: as §1, §2
Organisms: The test organisms as shown in Tables 11-15 consisted of clinical isolates from the Micromyx (MMX) repository and reference strains from the American Type Culture Collection (ATCC; Manassas, VA), National Collection of Type Cultures (NCTC; Public Health England, Salisbury, UK), the Network on Antimicrobial Resistance in Staphylococcus aureus (NARSA; BEI Resources, Manassas, VA), and the Centers for Disease Control and Prevention (CDC; Atlanta, GA). The test organisms were maintained frozen at −80° C. Prior to testing, the isolates were cultured on Tryptic Soy Agar with 5% sheep blood (BAP; Becton Dickson [BD]/BBL; Sparks, MD; Lot Nos. 9080650 and 9108563) at 35° C. Relevant ATCC quality control (QC) organisms (Table 16) were included during testing in accordance with CLSI guidelines (3). Further details on the genetic characterization of the isolates where available can be found in Table 17.
as §3, §4, §5, §6, §7, §8

[3] = system: S. aureus; assay: Broth microdilution MIC (Example 5); assay type: cell-based, Staphylococcus aureus; conditions: Staphylococcus aureus, ATCC 29213 / MSSA, S. aureus MMX 101 (ATCC 29213); QC; MSSA; read-out: MIC
Protocol: (§9) Test and Comparator Agents: The test agents were stored at room temperature until assayed. […] The stock solutions were allowed to stand for at least 1 hr prior to use to auto-sterilize.
(§10) TestMedia: Test media were prepared and stored in accordance with guidelines from CLSI (4, 6, 7).
(§11) Broth Microdilution MC Testing (Aerobic Bacteria and Yeast): The broth microdilution assay method employed for the susceptibility testing of aerobic bacteria (excluding N. gonorrhoeae which was evaluated by agar dilution) and yeast essentially followed the procedures described by CLSI (3, 4, 7, 8) and employed automated liquid handlers to conduct serial dilutions and liquid transfers. […] These would become the ‘mother plates’ from which ‘daughter’ or test plates would be prepared. The drugs (300 μL at 40× the desired top concentration in the test plates) were dispensed into the appropriate well in Column 1 of the mother plates. The Biomek 2000 was used to make serial two-fold dilutions through Column 11 in the “mother plate”. The wells of Column 12 contained no drug and ultimately served as the organism growth control wells.
(§12) The daughter plates were prepared using the Biomek FX which transferred 5 μL of drug solution from each well of a mother plate to the corresponding well of the correct daughter plate in a single step.
(§13) A standardized inoculum of each organism was prepared per CLSI methods (3, 7). Isolated colonies of each test isolate were picked from the primary plate and a suspension was prepared to equal a 0.5 McFarland turbidity standard. Standardized suspensions were then diluted […] (1:100 for yeast, 1:20 for bacteria). After dilution, the inoculum suspensions were then transferred to compartments of sterile reservoirs divided by length (Beckman Coulter), and the Biomek 2000 was used to inoculate all plates. Daughter plates were placed on the Biomek 2000 in reverse orientation so that plates were inoculated from low to high drug concentration.
(§14) The Biomek 2000 delivered 10 μL of standardized inoculum into each well of the appropriate daughter plate for an additional 1:20 dilution.
(§15) Plates were stacked 4 high, covered with a lid on the top plate, placed into plastic bags, and incubated at 35° C. for approximately 24-48 hr for all yeast isolates and 16-24 hr for aerobic bacteria. Plates were viewed from the bottom using a plate viewer. […] MIC endpoints for the test agents and control compounds were read per CLSI criteria (3, 7).

[4] = system: Acinetobacter baumannii; assay: Broth microdilution MIC (Example 6); assay type: cell-based
Protocol: as §1, §2, §3, §4, §5, §6, §7, §8

[5] = system: Escherichia coli; assay: Broth microdilution MIC (Example 6); assay type: cell-based
Protocol: (§16) Test Compounds: The test agents BisEDT (MB-1-B3; Lot No. ED268-1-11-01), MB-2B, and MB-6 were stored at room temperature, in the dark, until assayed.
(§17) For testing daptomycin, calcium was supplemented with […] Ca^2+, resulting in a final concentration of […] Ca^2+ (2, 3).
(§18) MIC Assay Procedure: MIC values were determined using a broth microdilution procedure described by CLSI (2, 3).
(§19) The Biomek 2000 was then used to make 2-fold serial dilutions in the mother plates from column 1 through column 11. The wells of column 12 contained no drug and served as the organism growth control wells for the assay.
(§20) The test panels were prepared on the Biomek FX instrument which transferred 2 μL of drug solution from each well of a mother plate to the corresponding well of each daughter plate in a single step.
as §7, §8

[6] = system: Klebsiella pneumoniae; assay: Broth microdilution MIC (Example 6); assay type: cell-based
Protocol: as §16, §17, §18, §19, §20, §7, §8

[7] = system: Pseudomonas aeruginosa; assay: Broth microdilution MIC (Example 6); assay type: cell-based
Protocol: as §16, §17, §18, §19, §20, §7, §8

[8] = system: S. pneumoniae; assay: Broth microdilution MIC (Example 5); assay type: cell-based
Protocol: as §9, §10, §11, §12, §13, §14, §15

MIC ([1]; S. aureus isolate NRS 1 (hVISA)): 1 µg/mL
MIC ([1]; S. aureus isolate NRS 2): 0.25 µg/mL
MIC ([1]; S. aureus isolate NRS 3): 1 µg/mL
MIC ([1]; S. aureus isolate NRS 4): 0.5 µg/mL
MIC ([1]; S. aureus isolate NRS 13): 2 µg/mL
MIC ([1]; S. aureus isolate NRS 18): 0.5 µg/mL
MIC ([1]; S. aureus isolate NRS 22): 2 µg/mL
MIC ([1]; S. aureus isolate NRS 24 (hVISA)): 0.5 µg/mL
MIC ([1]; S. aureus isolate NRS 27): 0.25 µg/mL
MIC ([2]; S. aureus ATCC 29213): 0.5 µg/mL
Compound: CCCCCCCCCC(=O)N[C@@H](Cc1c[nH]c2ccccc12)C(=O)N[C@H](CC(N)=O)C(=O)N[C@@H](CC(=O)O)C(=O)N[C@@H]1C(=O)NCC(=O)N[C@@H](CCCN)C(=O)N[C@@H](CC(=O)O)C(=O)N[C@H](C)C(=O)N[C@@H](CC(=O)O)C(=O)NCC(=O)N[C@H](CO)C(=O)N[C@@H]([C@H](C)CC(=O)O)C(=O)N[C@@H](CC(=O)c2ccccc2N)C(=O)O[C@@H]1C [DAP]

MIC [3]: 0.2 µg/mL (≈ 0.498 µM)
Compound: Cc1onc(-c2ccccc2)c1C(=O)N[C@@H]1C(=O)N2[C@@H]1SC(C)(C)[C@@H]2C(=O)O [Oxacillin]

Compound: CC(C)(O/N=C(\C(=O)N[C@@H]1C(=O)N2C(C(=O)[O-])=C(C[n+]3ccccc3)CS[C@H]12)c1csc(N)n1)C(=O)O.O=C(O)[C@H]1/C(=C/CO)O[C@@H]2CC(=O)N21 [CAZ + CLAV]
MIC ([2]; K. pneumoniae ATCC BAA-1705): >64/4
MIC ([2]; P. aeruginosa ATCC 27853): 2/4

Compound: CC(C)(O/N=C(\C(=O)N[C@@H]1C(=O)N2C(C(=O)[O-])=C(C[n+]3ccccc3)CS[C@H]12)c1csc(N)n1)C(=O)O.O=C(O)[C@H]1/C(=C/CO)O[C@@H]2CC(=O)N21 [CAZ/CLAV]
MIC ([4]; A. baumannii isolate CDC 273, β-lactamase type ESBL/OXA): 64/4
MIC ([4]; A. baumannii isolate CDC 274, β-lactamase type ESBL/OXA): >64/4
MIC ([4]; A. baumannii isolate CDC 275, β-lactamase type ESBL/OXA): >64/4
MIC ([4]; A. baumannii isolate CDC 277, β-lactamase type ESBL/OXA): >64/4
MIC ([4]; A. baumannii isolate CDC 284, β-lactamase type ESBL/OXA): 16/4
MIC ([4]; A. baumannii isolate CDC 307, β-lactamase type OXA): 64/4
MIC ([4]; A. baumannii isolate CDC 308, β-lactamase type ESBL/OXA): 64/4
MIC ([4]; A. baumannii isolate CDC 311, β-lactamase type OXA): >64/4
MIC ([4]; A. baumannii isolate CDC 312, β-lactamase type OXA): >64/4
MIC ([4]; A. baumannii isolate CDC 313, β-lactamase type ESBL/OXA): >64/4
MIC ([4]; A. baumannii isolate NCTC 13304, β-lactamase type OXA): >64/4
MIC ([5]; E. coli ATCC BAA-2471, NDM): >64/4
MIC ([5]; E. coli CDC 114, ESBL/KPC): 64/4
MIC ([5]; E. coli CDC 118, ESBL/NDM): >64/4
MIC ([5]; E. coli CDC 435, NDM): >64/4
MIC ([5]; E. coli CDC 451, KPC): 16/4
MIC ([5]; E. coli CDC 503, ESBL/NDM): >64/4
MIC ([5]; E. coli MMX 5745, KPC): 16/4
MIC ([5]; E. coli MMX 5755, ESBL): 1/4
MIC ([6]; K. pneumoniae ATCC BAA-1705, ESBL/KPC): >64/4
MIC ([6]; K. pneumoniae CDC 112, KPC): >64/4
MIC ([6]; K. pneumoniae CDC 113, ESBL/KPC): >64/4
MIC ([6]; K. pneumoniae CDC 115, ESBL/KPC): >64/4
MIC ([6]; K. pneumoniae CDC 120, ESBL/KPC): 64/4
MIC ([6]; K. pneumoniae CDC 126, ESBL/KPC): 8 µg/mL
MIC ([6]; K. pneumoniae CDC 129, ESBL/KPC): >64/4
MIC ([6]; K. pneumoniae CDC 135, ESBL/VIM): >64/4
MIC ([6]; K. pneumoniae CDC 138, ESBL/NDM): >64/4
MIC ([6]; K. pneumoniae CDC 158, ESBL/NDM/OXA): >64/4
MIC ([7]; P. aeruginosa isolate CDC 230, β-lactamase type VIM/OXA): 32/4
MIC ([7]; P. aeruginosa isolate CDC 231, β-lactamase type KPC/OXA): >64/4
MIC ([7]; P. aeruginosa isolate CDC 241, β-lactamase type IMP/OXA): >64/4
MIC ([7]; P. aeruginosa isolate CDC 246, β-lactamase type NDM/OXA): >64/4
MIC ([7]; P. aeruginosa isolate CDC 250, β-lactamase type NDM/OXA): >64/4
MIC ([7]; P. aeruginosa isolate CDC 356, β-lactamase type KPC): 64/4
MIC ([7]; P. aeruginosa isolate CDC 439, β-lactamase type IMP): >64/4
MIC ([7]; P. aeruginosa isolate CDC 444, β-lactamase type VIM): 32/4
MIC ([7]; P. aeruginosa isolate CDC 457, β-lactamase type VIM): 64/4
MIC ([7]; P. aeruginosa isolate CDC 516, β-lactamase type KPC/AmpC): 64/4
MIC ([7]; P. aeruginosa isolate CDC 518, β-lactamase type KPC/AmpC): 32/4

Compound: COc1cc(Cc2cnc(N)nc2N)cc(OC)c1OC.Cc1cc(NS(=O)(=O)c2ccc(N)cc2)no1 [Trimeth/Sulfa]
MIC ([8]; S. pneumoniae MMX 880, LevR SXTR CCR EryR PenR): 4/76
MIC ([8]; S. pneumoniae MMX 937, MemR SXTR CCR EryR PenR): 16/304
MIC ([8]; S. pneumoniae MMX 3959, CCR EryR): 2/38
MIC ([8]; S. pneumoniae MMX 5440, MemR SXTR CCR EryR PenR): 16/304
MIC ([8]; S. pneumoniae MMX 5445, MemR SXTR CCR EryR PenR): 8/152
MIC ([8]; S. pneumoniae MMX 8133, MemR SXTR CCR EryR PenR): 8/152
